Values belong to the molecule of their own block, whether it stands above or below them.
Tested on: 349418-098-R-PDC complex spheroid viability
Test: Anticancer human tumor 349418-098-R-PDC patient-derived lung adenocarcinoma cell line growth inhibition [RAS]
Settings: for IC50: curve of first compound; for viability, T/C: stronger effect = lower value
Outline: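 Tumour cells grown as complex spheroids with HUVEC endothelial cells and mesenchymal stem cells, treated with RAS pathway inhibitor combinations. Each agent spans half-log steps from near clinical Cmax, or 10 microM where Cmax is unknown.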

[1] = second compound 0.000949 µM, first compound 0.0316 µM
[2] = second compound 0.000949 µM, first compound 0.1 µM
[3] = second compound 0.000949 µM, first compound 0.316 µM
[4] = second compound 0.000949 µM, first compound 1 µM
[5] = second compound 0.003 µM, first compound 0.0316 µM
[6] = second compound 0.003 µM, first compound 0.1 µM
[7] = second compound 0.003 µM, first compound 0.316 µM
[8] = second compound 0.003 µM, first compound 1 µM
[9] = second compound 0.00949 µM, first compound 0.0316 µM
[10] = second compound 0.00949 µM, first compound 0.1 µM
[11] = second compound 0.00949 µM, first compound 0.316 µM
[12] = second compound 0.00949 µM, first compound 1 µM
[13] = second compound 0.03 µM, first compound 0.0316 µM
[14] = second compound 0.03 µM, first compound 0.1 µM
[15] = second compound 0.03 µM, first compound 0.316 µM
[16] = second compound 0.03 µM, first compound 1 µM
[17] = second compound 0.0949 µM, first compound 0.0316 µM
[18] = second compound 0.0949 µM, first compound 0.1 µM
[19] = second compound 0.0949 µM, first compound 0.316 µM
[20] = second compound 0.0949 µM, first compound 1 µM
[21] = second compound 0.3 µM, first compound 0.0316 µM
[22] = second compound 0.3 µM, first compound 0.1 µM
[23] = second compound 0.3 µM, first compound 0.316 µM
[24] = second compound 0.3 µM, first compound 1 µM
[25] = second compound 0.000949 µM, first compound 3.16 µM
[26] = second compound 0.000949 µM, first compound 10 µM
[27] = second compound 0.003 µM, first compound 3.16 µM
[28] = second compound 0.003 µM, first compound 10 µM
[29] = second compound 0.00949 µM, first compound 3.16 µM
[30] = second compound 0.00949 µM, first compound 10 µM
[31] = second compound 0.03 µM, first compound 3.16 µM
[32] = second compound 0.03 µM, first compound 10 µM
[33] = second compound 0.0949 µM, first compound 3.16 µM
[34] = second compound 0.0949 µM, first compound 10 µM
[35] = second compound 0.3 µM, first compound 3.16 µM
[36] = second compound 0.3 µM, first compound 10 µM
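Note: spheroids exposed to compound for seven days before viability readout.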

IC50 (second compound 0.000949 µM): 12 nM
IC50 (second compound 0.003 µM): 14.7 nM
IC50 (second compound 0.00949 µM): 13.6 nM
IC50 (second compound 0.03 µM): 8.64 nM
IC50 (second compound 0.0949 µM): 9.8 nM
IC50 (second compound 0.3 µM): 7.33 nM
Structure (SMILES): CCN1CCN(Cc2ccc(Nc3ncc(F)c(-c4cc(F)c5nc(C)n(C(C)C)c5c4)n3)nc2)CC1 + CCn1c(-c2cccnc2C(C)OC)c2c3cc(ccc31)N1CCOC(CC(NC(=O)C(C(C)C)N(C)C(=O)C3(F)CCN(C(=O)C#CC(C)(C)N(C)C)CC3)C(=O)N3CCCC(N3)C(=O)OCC(C)(C)C2)C1
viability, T/C (second compound 0.000949 µM, first compound 0.00316 µM): 80.1%
viability, T/C (second compound 0.000949 µM, first compound 0.01 µM): 54.1%
viability, T/C [1]: 30.6%
viability, T/C [2]: 22.5%
viability, T/C [3]: 18.7%
viability, T/C [4]: 13.1%
viability, T/C (second compound 0.003 µM, first compound 0.00316 µM): 85.5%
viability, T/C (second compound 0.003 µM, first compound 0.01 µM): 61%
viability, T/C [5]: 28%
viability, T/C [6]: 20.3%
viability, T/C [7]: 16.8%
viability, T/C [8]: 13.4%
viability, T/C (second compound 0.00949 µM, first compound 0.00316 µM): 96%
viability, T/C (second compound 0.00949 µM, first compound 0.01 µM): 52.2%
viability, T/C [9]: 39.1%
viability, T/C [10]: 22.3%
viability, T/C [11]: 16.1%
viability, T/C [12]: 14.7%
viability, T/C (second compound 0.03 µM, first compound 0.00316 µM): 80.5%
viability, T/C (second compound 0.03 µM, first compound 0.01 µM): 44.6%
viability, T/C [13]: 29%
viability, T/C [14]: 21.5%
viability, T/C [15]: 15.9%
viability, T/C [16]: 14.4%
viability, T/C (second compound 0.0949 µM, first compound 0.00316 µM): 73.4%
viability, T/C (second compound 0.0949 µM, first compound 0.01 µM): 48.7%
viability, T/C [17]: 34.5%
viability, T/C [18]: 16.6%
viability, T/C [19]: 20.6%
viability, T/C [20]: 12.5%
viability, T/C (second compound 0.3 µM, first compound 0.00316 µM): 61.5%
viability, T/C (second compound 0.3 µM, first compound 0.01 µM): 45.5%
viability, T/C [21]: 33.2%
viability, T/C [22]: 21.4%
viability, T/C [23]: 19%
viability, T/C [24]: 13.5%

IC50 (second compound 0.000949 µM): 1280 nM
IC50 (second compound 0.003 µM): 1500 nM
IC50 (second compound 0.00949 µM): 1430 nM
IC50 (second compound 0.03 µM): 1580 nM
IC50 (second compound 0.0949 µM): 1900 nM
IC50 (second compound 0.3 µM): 1230 nM
Structure (SMILES): C[C@@H](NC(=O)c1ncnc(N)c1Cl)c1ncc(C(=O)Nc2cc(C(F)(F)F)c(Cl)cn2)s1 + CCn1c(-c2cccnc2C(C)OC)c2c3cc(ccc31)N1CCOC(CC(NC(=O)C(C(C)C)N(C)C(=O)C3(F)CCN(C(=O)C#CC(C)(C)N(C)C)CC3)C(=O)N3CCCC(N3)C(=O)OCC(C)(C)C2)C1
viability, T/C [1]: 113%
viability, T/C [2]: 106%
viability, T/C [3]: 90.3%
viability, T/C [4]: 55.4%
viability, T/C [25]: 29.4%
viability, T/C [26]: 20.2%
viability, T/C [5]: 117%
viability, T/C [6]: 97.5%
viability, T/C [7]: 88.3%
viability, T/C [8]: 58.2%
viability, T/C [27]: 32.5%
viability, T/C [28]: 19.4%
viability, T/C [9]: 94.7%
viability, T/C [10]: 92.5%
viability, T/C [11]: 73.9%
viability, T/C [12]: 47.5%
viability, T/C [29]: 45.1%
viability, T/C [30]: 18.4%
viability, T/C [13]: 114%
viability, T/C [14]: 84.2%
viability, T/C [15]: 82%
viability, T/C [16]: 61.4%
viability, T/C [31]: 33.7%
viability, T/C [32]: 19.5%
viability, T/C [17]: 97.2%
viability, T/C [18]: 96.5%
viability, T/C [19]: 89.3%
viability, T/C [20]: 72.4%
viability, T/C [33]: 32.5%
viability, T/C [34]: 16.8%
viability, T/C [21]: 107%
viability, T/C [22]: 81.2%
viability, T/C [23]: 66.5%
viability, T/C [24]: 57.4%
viability, T/C [35]: 40.9%
viability, T/C [36]: 14.8%

IC50 (second compound 0.000949 µM): > 10000 nM
IC50 (second compound 0.003 µM): > 10000 nM
IC50 (second compound 0.00949 µM): > 10000 nM
IC50 (second compound 0.03 µM): > 10000 nM
IC50 (second compound 0.0949 µM): > 10000 nM
IC50 (second compound 0.3 µM): > 10000 nM
Structure (SMILES): Cc1nc(N2CCC3(CC2)COC(C)C3N)c(CO)nc1Sc1ccnc(N)c1Cl (stereo unspecified) + CCn1c(-c2cccnc2C(C)OC)c2c3cc(ccc31)N1CCOC(CC(NC(=O)C(C(C)C)N(C)C(=O)C3(F)CCN(C(=O)C#CC(C)(C)N(C)C)CC3)C(=O)N3CCCC(N3)C(=O)OCC(C)(C)C2)C1
viability, T/C [1]: 97.9%
viability, T/C [2]: 86.4%
viability, T/C [3]: 102%
viability, T/C [4]: 103%
viability, T/C [25]: 101%
viability, T/C [26]: 89.5%
viability, T/C [5]: 102%
viability, T/C [6]: 91.9%
viability, T/C [7]: 119%
viability, T/C [8]: 96.7%
viability, T/C [27]: 97.1%
viability, T/C [28]: 108%
viability, T/C [9]: 103%
viability, T/C [10]: 106%
viability, T/C [11]: 106%
viability, T/C [12]: 99.8%
viability, T/C [29]: 118%
viability, T/C [30]: 90.5%
viability, T/C [13]: 119%
viability, T/C [14]: 107%
viability, T/C [15]: 99.3%
viability, T/C [16]: 110%
viability, T/C [31]: 115%
viability, T/C [32]: 91.5%
viability, T/C [17]: 98.5%
viability, T/C [18]: 98.9%
viability, T/C [19]: 105%
viability, T/C [20]: 87.9%
viability, T/C [33]: 101%
viability, T/C [34]: 100%
viability, T/C [21]: 83.7%
viability, T/C [22]: 89.3%
viability, T/C [23]: 100%
viability, T/C [24]: 87.8%
viability, T/C [35]: 101%
viability, T/C [36]: 77.4%

— PubChem BioAssay AID2060904 (Molecular Pharmacology Branch, DTP, NCI, 2025)
